# Data from patent US7964594B1, “Amino oxazine derivatives” (Hoffmann-La Roche Inc., priority 2009, dated 2011).
# Molecular target: T1, BACE2 (Rattus norvegicus, UniProt Q6IE75)
# T1 construct: endogenous cellular BACE2 in the Ins1e rat cell line; endogenous in cells; host or cells: INS-TMEM27 (INS1e-derived rat insulinoma cell line with doxycycline-inducible full-length hTMEM27)
# T1 sequence (Q6IE75 63-514): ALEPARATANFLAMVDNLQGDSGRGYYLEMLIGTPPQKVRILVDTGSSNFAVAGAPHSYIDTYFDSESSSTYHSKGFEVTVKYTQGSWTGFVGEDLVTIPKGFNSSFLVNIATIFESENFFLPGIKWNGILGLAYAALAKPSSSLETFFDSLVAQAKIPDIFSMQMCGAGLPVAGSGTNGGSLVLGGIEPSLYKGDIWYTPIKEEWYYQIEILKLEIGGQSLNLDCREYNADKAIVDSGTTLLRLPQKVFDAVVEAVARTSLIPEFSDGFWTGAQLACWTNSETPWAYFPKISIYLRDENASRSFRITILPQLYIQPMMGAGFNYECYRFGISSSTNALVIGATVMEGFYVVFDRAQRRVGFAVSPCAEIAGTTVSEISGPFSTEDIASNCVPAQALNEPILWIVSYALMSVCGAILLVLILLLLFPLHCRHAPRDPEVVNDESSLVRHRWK
# Assay: Assay for BACE inhibition by measuring cellular TMEM27 cleavage (INS-TMEM27 cells, ELISA of shed TMEM27)
# Type: cell-based
# Settings: inhibition of human TMEM27 cleavage by endogenous cellular BACE2 in Ins1e rat cell line; ELISA of culture medium
# Source text: Assay for BACE Inhibition by Measuring Cellular TMEM27 Cleavage
# The assay uses the principle of inhibition of human TMEM27 cleavage by endogenous cellular BACE2 in the Ins1e rat cell line and shedding from the cell surface into the culture medium, followed by detection in an ELISA assay. Inhibition of BACE2 prevents the cleavage and shedding in a dose-dependent manner.
# The stable cell line “INS-TMEM27” represents an INS1e-derived cell line with inducible expression (using the TetOn system) of full-length hTMEM27 in a doxycycline-dependent manner. The cells were cultured throughout the experiment in RPMI1640+Glutamax (Invitrogen) Penicillin/Streptomycin, 10% Fetal bovine serum, […], […], 100 micrograms/ml G418 and 100 microgram/ml hygromycin and were grown in adherent culture at 37° C. in a standard CO2 cell culture incubator.
# INS-TMEM27 cells were seeded in 96-well plates. After 2 days in culture, BACE2 inhibitor was added in a range of concentrations as required by the assay and after a further two hours, doxycycline was added to a final concentration of 500 ng/ml. The cells were incubated for a further 46 hours and the supernatant harvested for detection of shed TMEM27.
# An ELISA assay (using a pair of mouse anti-human-TMEM27 antibodies, raised against the extracellular domain of TMEM27) was used for detection of TMEM27 in the culture medium. An IC50 for BACE2 inhibition was calculated using the ELISA readout for each inhibitor concentration with standard curve-fitting software XLfit (IDBS) for the Excel spreadsheet program.
row,SMILES,IC50 [nM]
1,"C[C@@]1(c2cc(NC(=O)c3ncccc3C(F)(F)F)ccc2F)CCOC(N)=N1 [Example 16, 3-Trifluoromethyl-pyridine-2-carboxylic acid [3-((S)-2-amino-4-methyl-5,6-dihydro-4H-[1,3]oxazin-4-yl)-4-fluoro-phenyl]-amide]",22
2,"CC[C@@]1(c2cc(NC(=O)c3ccccn3)ccc2F)CCOC(N)=N1 [Example 18, Pyridine-2-carboxylic acid [3-((S)-2-amino-4-ethyl-5,6-dihydro-4H-[1,3]oxazin-4-yl)-4-fluoro-phenyl]-amide]",35
3,CC[C@@]1(c2cc(NC(=O)c3ccc(C)s3)ccc2F)CCOC(N)=N1 [Example 20],48
4,CC[C@@]1(c2cc(NC(=O)c3ccc(Cl)s3)ccc2F)CCOC(N)=N1 [Example 21],240
5,"COc1cccnc1C(=O)Nc1ccc(F)c([C@]2(C)CCOC(N)=N2)c1 [Example 27, 3-Methoxy-pyridine-2-carboxylic acid [3-((S)-2-amino-4-methyl-5,6-dihydro-4H-[1,3]oxazin-4-yl)-4-fluoro-phenyl]-amide]",23
6,Cc1ccsc1C(=O)Nc1ccc(F)c([C@]2(C)CCOC(N)=N2)c1 [Example 34],350
7,"C[C@]1(c2cc(NC(=O)c3ncccc3F)ccc2F)N=C(N)OCC12CC2 [Example 37, 3-Fluoro-pyridine-2-carboxylic acid [3-((S)-6-amino-8-methyl-5-oxa-7-aza-spiro[2.5]oct-6-en-8-yl)-4-fluoro-phenyl]-amide]",40
8,COc1ccc(C(=O)Nc2ccc(F)c([C@@]3(C)N=C(N)OCC34CC4)c2)nc1 [Example 39],91
9,"C[C@]1(c2cc(NC(=O)c3ccc(F)cn3)ccc2F)N=C(N)OCC12CC2 [Example 40, 5-Fluoro-pyridine-2-carboxylic acid [3-((S)-6-amino-8-methyl-5-oxa-7-aza-spiro[2.5]oct-6-en-8-yl)-4-fluoro-phenyl]-amide]",39
10,"C[C@]1(c2cc(NC(=O)c3ccc(C#N)cn3)ccc2F)N=C(N)OCC12CC2 [Example 41, 5-Cyano-pyridine-2-carboxylic acid [3-((S)-6-amino-8-methyl-5-oxa-7-aza-spiro[2.5]oct-6-en-8-yl)-4-fluoro-phenyl]-amide]",52
11,"C[C@]1(c2cc(NC(=O)c3ccc(OC(F)F)cn3)ccc2F)N=C(N)OCC12CC2 [Example 42, 5-Difluoromethoxy-pyridine-2-carboxylic acid [3-((S)-6-amino-8-methyl-5-oxa-7-aza-Spiro[2.5]oct-6-en-8-yl)-4-fluoro-phenyl]-amide]",210
12,"C[C@]1(c2cc(NC(=O)c3ccccn3)ccc2F)N=C(N)OCC12CC2 [Example 43, Pyridine-2-carboxylic acid [3-((S)-6-amino-8-methyl-5-oxa-7-aza-spiro[2.5]oct-6-en-8-yl)-4-fluoro-phenyl]-amide]",18
13,"C[C@@]1(c2cc(NC(=O)C(F)C(F)(F)F)ccc2F)CCOC(N)=N1 (stereo partly drawn) [Example 45, N-[3-((S)-2-Amino-4-methyl-5,6-dihydro-4H-[1,3]oxazin-4-yl)-4-fluoro-phenyl]-2,3,3,3-tetrafluoro-propionamide]",400
14,"C[C@@]1(c2cc(NC(=O)C3CC3(F)F)ccc2F)CCOC(N)=N1 (stereo partly drawn) [Example 46, 2,2-Difluoro-cyclopropanecarboxylic acid [3-((S)-2-amino-4-methyl-5,6-dihydro-4H-[1,3]oxazin-4-yl)-4-fluoro-phenyl]-amide]",70
15,"C[C@]1(c2cc(NC(=O)c3c(F)cccc3F)ccc2F)N=C(N)OCC12CC2 [Example 47, (S)—N-(3-(6-Amino-8-methyl-5-oxa-7-azaspiro[2.5]oct-6-en-8-yl)-4-fluorophenyl)-2,6-difluorobenzamide]",620
16,"C[C@]1(c2cc(NC(=O)c3ncccc3Cl)ccc2F)N=C(N)OCC12CC2 [Example 48, (S)—N-(3-(6-Amino-8-methyl-5-oxa-7-azaspiro[2.5]oct-6-en-8-yl)-4-fluorophenyl)-3-chloropicolinamide]",36
17,"C[C@]1(c2cc(NC(=O)c3ncc(C(F)(F)F)cc3Cl)ccc2F)N=C(N)OCC12CC2 [Example 50, (S)—N-(3-(6-Amino-8-methyl-5-oxa-7-azaspiro[2.5]oct-6-en-8-yl)-4-fluorophenyl)-3-chloro-5-(trifluoromethyl)picolinamide]",190

# Now those with a lower IC50, led by results:
row,IC50 [nM],SMILES
1,11,"Cc1ccc(C(=O)Nc2ccc(F)c([C@]3(C)CCOC(N)=N3)c2)s1 [Example 17, 5-Methyl-thiophene-2-carboxylic acid [3-((S)-2-amino-4-methyl-5,6-dihydro-4H-[1,3]oxazin-4-yl)-4-fluoro-phenyl]-amide]"
2,8,"CC[C@@]1(c2cc(NC(=O)c3ccc(Cl)cn3)ccc2F)CCOC(N)=N1 [Example 19, 5-Chloro-pyridine-2-carboxylic acid [3-((S)-2-amino-4-ethyl-5,6-dihydro-4H-[1,3]oxazin-4-yl)-4-fluoro-phenyl]-amide]"
3,7,CC[C@@]1(c2cc(NC(=O)c3ncc(Cl)cc3Cl)ccc2F)CCOC(N)=N1 [Example 22]
4,9,CC[C@@]1(c2cc(NC(=O)c3ncc(Cl)cc3C)ccc2F)CCOC(N)=N1 [Example 23]
5,1,CC[C@@]1(c2cc(NC(=O)c3coc(C)n3)ccc2F)CCOC(N)=N1 [Example 24]
6,1,"Cc1cc(Cl)cnc1C(=O)Nc1ccc(F)c([C@]2(C)CCOC(N)=N2)c1 [Example 26, 5-Chloro-3-methyl-pyridine-2-carboxylic acid [3-((S)-2-amino-4-methyl-5,6-dihydro-4H-[1,3]oxazin-4-yl)-4-fluoro-phenyl]-amide]"
7,4,Cc1nc(C(=O)Nc2ccc(F)c([C@]3(C)CCOC(N)=N3)c2)cs1 [Example 28]
8,3,Cn1ccc(C(=O)Nc2ccc(F)c([C@]3(C)CCOC(N)=N3)c2)n1 [Example 29]
9,12,"COc1ccc(C(=O)Nc2ccc(F)c([C@]3(C)CCOC(N)=N3)c2)nc1 [Example 30, 5-Methoxy-pyridine-2-carboxylic acid [3-((S)-2-amino-4-methyl-5,6-dihydro-4H-[1,3]oxazin-4-yl)-4-fluoro-phenyl]-amide]"
10,11,"C[C@@]1(c2cc(NC(=O)c3ncc(C(F)(F)F)cc3Cl)ccc2F)CCOC(N)=N1 [Example 31, 3-Chloro-5-trifluoromethyl-pyridine-2-carboxylic acid [3-((S)-2-amino-4-methyl-5,6-dihydro-4H-[1,3]oxazin-4-yl)-4-fluoro-phenyl]-amide]"
11,4,"C[C@@]1(c2cc(NC(=O)c3cccc(Cl)n3)ccc2F)CCOC(N)=N1 [Example 32, 6-Chloro-pyridine-2-carboxylic acid [3-((S)-2-amino-4-methyl-5,6-dihydro-4H-[1,3]oxazin-4-yl)-4-fluoro-phenyl]-amide]"
12,7,"C[C@@]1(c2cc(NC(=O)c3ncc(F)cc3F)ccc2F)CCOC(N)=N1 [Example 33, 3,5-Difluoro-pyridine-2-carboxylic acid [3-((S)-2-amino-4-methyl-5,6-dihydro-4H-[1,3]oxazin-4-yl)-4-fluoro-phenyl]-amide]"
13,11,C[C@@]1(c2cc(NC(=O)c3ncc(F)cc3Cl)ccc2F)CCOC(N)=N1 [Example 35]
14,16,"C[C@]1(c2cc(NC(=O)c3ccc(Cl)cn3)ccc2F)N=C(N)OCC12CC2 [Example 36, 5-Chloro-pyridine-2-carboxylic acid [3-((S)-6-amino-8-methyl-5-oxa-7-aza-spiro[2.5]oct-6-en-8-yl)-4-fluoro-phenyl]-amide]"
15,5.1,"Cc1cc(Cl)cnc1C(=O)Nc1ccc(F)c([C@@]2(C)N=C(N)OCC23CC3)c1 [Example 38, 5-Chloro-3-methyl-pyridine-2-carboxylic acid [3-((S)-6-amino-8-methyl-5-oxa-7-aza-Spiro[2.5]oct-6-en-8-yl)-4-fluoro-phenyl]amide]"
16,7.1,"C[C@]1(c2cc(NC(=O)c3ncc(Cl)cn3)ccc2F)N=C(N)OCC12CC2 [Example 44, 5-Chloro-pyrimidine-2-carboxylic acid [3-((S)-6-amino-8-methyl-5-oxa-7-aza-spiro[2.5]oct-6-en-8-yl)-4-fluoro-phenyl]-amide]"
17,14,"C[C@]1(c2cc(NC(=O)c3ncc(F)cc3F)ccc2F)N=C(N)OCC12CC2 [Example 49, (S)—N-(3-(6-Amino-8-methyl-5-oxa-7-azaspiro[2.5]oct-6-en-8-yl)-4-fluorophenyl)-3,5-difluoropicolinamide]"
